Each compound was assayed on HIV-1 (assay: NCI in vitro anti-HIV drug screen: XTT-formazan assay, protection of T4 lymphocytes (CEM) from HIV-1 cytopathic effects). Conditions: Human immunodeficiency virus 1, CCRF-CEM, 144 h; HIV-1 infected CEM cells, 6 days, XTT; approximate values; read-out: EC50 (50% effective concentration against HIV cytopathic effects).
Type: cell-based, human immunodeficiency virus (HIV-1)
Experimental: Compounds of the present invention were evaluated for anti-HIV efficacy by the National Cancer Institute's (NCI) In Vitro Anti AIDS Drug Discovery Program.
(§1) The NCI procedure is fully described, for example, in a bulletin provided by the National Institutes of Health, National Cancer Institute, Bethesda, Md. 20892, all of which is incorporated herein by reference. As related in the NCI bulletin, the procedure is based on O. W. Weislow et al., "New soluble-formazan assay for HIV-1 cytopathic effects: application to high flux screening of synthetic and natural products for AIDS-antiviral activity", J. Natl. Cancer Inst. 81:577-586 (1989), and is used to test for compounds active against human immunodeficiency virus (HIV), and is designed to detect compounds active at any stage of the virus reproductive cycle. As further related in the NCI bulletin, the assay includes killing of T4 lymphocytes by HIV. Amounts of HIV are added to cells, with a minimum of two cycles of virus reproduction found to be necessary to obtain the required cell killing. Compounds that interact with virions, cells, or virus gene-products to interfere with viral activities will protect cells from cytolysis. All were compared with a positive (e.g., AZT-treated) control evaluation at the same time under identical conditions. The procedure is set forth as follows:
(§2) A candidate compound is first dissolved in a suitable solvent, preferably dimethyl sulfoxide, then diluted 1:100 in cell culture medium before preparing serial half-log10 dilutions. T4 lymphocytes (CEM cell line) are then added and after a brief interval HIV-1 is added, resulting in a 1:200 final dilution of the compound. Uninfected cells with the compound serve as a toxicity control, and infected and uninfected without the compound serve as basic controls. Cultures are then incubated at 37° in a 5% carbon dioxide atmosphere for 6 days. The tetrazolium salt, XTT, is added to all wells, and cultures are incubated to allow formazan color development by viable cells. Individual wells are analyzed spectrophotometrically to quantitate formazan product, and in addition are viewed microscopically for detection of viable cells and confirmation of protective activity. Drug-treated virus-infected cells are compared with drug-treated noninfected cells and with other appropriate controls (untreated infected and untreated noninfected cells, drug-containing wells without cells, etc.) on the same plate. Data are reviewed in comparison with other tests performed at the same time and a determination as to activity is made.
With CNc1ccccc1S(=O)(=O)c1ccccc1Cl [Compound 82, 2-(2-CHLOROPHENYSULFONYL)-N-METHYLANILINE] the EC50 was 29.7 µM.

Same assay, conditions: Human immunodeficiency virus 1, CCRF-CEM, dose 2.00 × 10^-4 Molar; read-out: Percent of Protection
CNc1ccccc1S(=O)(=O)c1ccccc1Cl [Compound 82, 2-(2-CHLOROPHENYSULFONYL)-N-METHYLANILINE] was tested, and the inhibition at 200 µM was 3.76%.

Same assay, conditions: Human immunodeficiency virus 1, CCRF-CEM, dose 2.00 × 10^-5 Molar; read-out: Percent of Protection
For CNc1ccccc1S(=O)(=O)c1ccccc1Cl [Compound 82, 2-(2-CHLOROPHENYSULFONYL)-N-METHYLANILINE], the inhibition at 20 µM was 41.4%.

Same assay, conditions: Human immunodeficiency virus 1, CCRF-CEM, dose 2.00 × 10^-6 Molar; read-out: Percent of Protection
With CNc1ccccc1S(=O)(=O)c1ccccc1Cl [Compound 82, 2-(2-CHLOROPHENYSULFONYL)-N-METHYLANILINE] the inhibition at 2 µM was -5.07%.

Same assay, conditions: Human immunodeficiency virus 1, CCRF-CEM, dose 2.00 × 10^-7 Molar; read-out: Percent of Protection
Work on CNc1ccccc1S(=O)(=O)c1ccccc1Cl [Compound 82, 2-(2-CHLOROPHENYSULFONYL)-N-METHYLANILINE] yielded an inhibition at 0.2 µM of -22.6%.

Same assay, conditions: Human immunodeficiency virus 1, CCRF-CEM, dose 6.32 × 10^-5 Molar; read-out: Percent of Protection
CNc1ccccc1S(=O)(=O)c1ccccc1Cl [Compound 82, 2-(2-CHLOROPHENYSULFONYL)-N-METHYLANILINE] showed an inhibition at 63.2 µM of 68.1%.

Same assay, conditions: Human immunodeficiency virus 1, CCRF-CEM, dose 6.33 × 10^-6 Molar; read-out: Percent of Protection
In the case of CNc1ccccc1S(=O)(=O)c1ccccc1Cl [Compound 82, 2-(2-CHLOROPHENYSULFONYL)-N-METHYLANILINE], the inhibition at 6.33 µM is reported as 24.5%.

Same assay, conditions: Human immunodeficiency virus 1, CCRF-CEM, dose 6.34 × 10^-7 Molar; read-out: Percent of Protection
Compound CNc1ccccc1S(=O)(=O)c1ccccc1Cl [Compound 82, 2-(2-CHLOROPHENYSULFONYL)-N-METHYLANILINE] has an inhibition at 0.634 µM of -8.87%.

Same assay, conditions: Human immunodeficiency virus 1, CCRF-CEM, dose 6.35 × 10^-8 Molar; read-out: Percent of Protection
Compound CNc1ccccc1S(=O)(=O)c1ccccc1Cl [Compound 82, 2-(2-CHLOROPHENYSULFONYL)-N-METHYLANILINE] has an inhibition at 0.0635 µM of 23.7%.

Same assay, conditions: Human immunodeficiency virus 1, Lymphocyte, dose 2.00 × 10^-4 Molar; read-out: Percent of Control, Infected
Work on CNc1ccccc1S(=O)(=O)c1ccccc1Cl [Compound 82, 2-(2-CHLOROPHENYSULFONYL)-N-METHYLANILINE] yielded an activity at 200 µM of 34.6%.

Same assay, conditions: Human immunodeficiency virus 1, Lymphocyte, dose 2.00 × 10^-5 Molar; read-out: Percent of Control, Infected
CNc1ccccc1S(=O)(=O)c1ccccc1Cl [Compound 82, 2-(2-CHLOROPHENYSULFONYL)-N-METHYLANILINE] showed an activity at 20 µM of 60.1%.

Same assay, conditions: Human immunodeficiency virus 1, Lymphocyte, dose 2.00 × 10^-6 Molar; read-out: Percent of Control, Infected
Work on CNc1ccccc1S(=O)(=O)c1ccccc1Cl [Compound 82, 2-(2-CHLOROPHENYSULFONYL)-N-METHYLANILINE] yielded an activity at 2 µM of 28.6%.

Same assay, conditions: Human immunodeficiency virus 1, Lymphocyte, dose 2.00 × 10^-7 Molar; read-out: Percent of Control, Infected
With CNc1ccccc1S(=O)(=O)c1ccccc1Cl [Compound 82, 2-(2-CHLOROPHENYSULFONYL)-N-METHYLANILINE] the activity at 0.2 µM was 16.6%.

Same assay, conditions: Human immunodeficiency virus 1, Lymphocyte, dose 6.32 × 10^-5 Molar; read-out: Percent of Control, Infected
Compound CNc1ccccc1S(=O)(=O)c1ccccc1Cl [Compound 82, 2-(2-CHLOROPHENYSULFONYL)-N-METHYLANILINE] has an activity at 63.2 µM of 78.3%.

Same assay, conditions: Human immunodeficiency virus 1, Lymphocyte, dose 6.33 × 10^-6 Molar; read-out: Percent of Control, Infected
Work on CNc1ccccc1S(=O)(=O)c1ccccc1Cl [Compound 82, 2-(2-CHLOROPHENYSULFONYL)-N-METHYLANILINE] yielded an activity at 6.33 µM of 48.6%.

Same assay, conditions: Human immunodeficiency virus 1, Lymphocyte, dose 6.34 × 10^-7 Molar; read-out: Percent of Control, Infected
CNc1ccccc1S(=O)(=O)c1ccccc1Cl [Compound 82, 2-(2-CHLOROPHENYSULFONYL)-N-METHYLANILINE] showed an activity at 0.634 µM of 26%.

Same assay, conditions: Human immunodeficiency virus 1, Lymphocyte, dose 6.35 × 10^-8 Molar; read-out: Percent of Control, Infected
For CNc1ccccc1S(=O)(=O)c1ccccc1Cl [Compound 82, 2-(2-CHLOROPHENYSULFONYL)-N-METHYLANILINE], the activity at 0.0635 µM was 48.1%.

Same assay, conditions: IC50/EC50
In the case of CNc1ccccc1S(=O)(=O)c1ccccc1Cl [Compound 82, 2-(2-CHLOROPHENYSULFONYL)-N-METHYLANILINE], the “TI50 (IC/EC), Therapeutic Index” value is reported as 4.93 × 10^0.

These compounds were tested on T4 lymphocytes (CEM cell line) (assay: Cell growth / toxicity control in uninfected T4 lymphocytes (CEM), XTT-formazan). Conditions: Homo sapiens, CCRF-CEM, 144 h, uninfected CEM cells, 6 days, XTT; approximate values; read-out: IC50 (50% inhibitory concentration for cell growth).
Type: cell-based
Source text: as §1, §2
CNc1ccccc1S(=O)(=O)c1ccccc1Cl [Compound 82, 2-(2-CHLOROPHENYSULFONYL)-N-METHYLANILINE] gave an IC50 of 146 µM.

Same assay, conditions: Homo sapiens, CCRF-CEM, dose 2.00 × 10^-4 Molar; read-out: Percent of Control, Uninfected
For CNc1ccccc1S(=O)(=O)c1ccccc1Cl [Compound 82, 2-(2-CHLOROPHENYSULFONYL)-N-METHYLANILINE], the activity at 200 µM was 33.9%.

Same assay, conditions: Homo sapiens, CCRF-CEM, dose 2.00 × 10^-5 Molar; read-out: Percent of Control, Uninfected
CNc1ccccc1S(=O)(=O)c1ccccc1Cl [Compound 82, 2-(2-CHLOROPHENYSULFONYL)-N-METHYLANILINE] gave an activity at 20 µM of 78.2%.

Same assay, conditions: Homo sapiens, CCRF-CEM, dose 2.00 × 10^-6 Molar; read-out: Percent of Control, Uninfected
With CNc1ccccc1S(=O)(=O)c1ccccc1Cl [Compound 82, 2-(2-CHLOROPHENYSULFONYL)-N-METHYLANILINE] the activity at 2 µM was 91.2%.

Same assay, conditions: Homo sapiens, CCRF-CEM, dose 2.00 × 10^-7 Molar; read-out: Percent of Control, Uninfected
CNc1ccccc1S(=O)(=O)c1ccccc1Cl [Compound 82, 2-(2-CHLOROPHENYSULFONYL)-N-METHYLANILINE] showed an activity at 0.2 µM of 60.8%.

Same assay, conditions: Homo sapiens, CCRF-CEM, dose 6.32 × 10^-5 Molar; read-out: Percent of Control, Uninfected
For CNc1ccccc1S(=O)(=O)c1ccccc1Cl [Compound 82, 2-(2-CHLOROPHENYSULFONYL)-N-METHYLANILINE], the activity at 63.2 µM was 93.3%.

Same assay, conditions: Homo sapiens, CCRF-CEM, dose 6.33 × 10^-6 Molar; read-out: Percent of Control, Uninfected
For CNc1ccccc1S(=O)(=O)c1ccccc1Cl [Compound 82, 2-(2-CHLOROPHENYSULFONYL)-N-METHYLANILINE], the activity at 6.33 µM was 84.2%.

Same assay, conditions: Homo sapiens, CCRF-CEM, dose 6.34 × 10^-7 Molar; read-out: Percent of Control, Uninfected
CNc1ccccc1S(=O)(=O)c1ccccc1Cl [Compound 82, 2-(2-CHLOROPHENYSULFONYL)-N-METHYLANILINE] gave an activity at 0.634 µM of 96.1%.

Same assay, conditions: Homo sapiens, CCRF-CEM, dose 6.35 × 10^-8 Molar; read-out: Percent of Control, Uninfected
CNc1ccccc1S(=O)(=O)c1ccccc1Cl [Compound 82, 2-(2-CHLOROPHENYSULFONYL)-N-METHYLANILINE] showed an activity at 0.0635 µM of 93.2%.

Reference: patent US6303630A, “Diarylsulfone non-nucleoside reverse transcriptase inhibitors of human immunodeficiency virus” (University of the Sciences in Philadelphia, priority 2000, dated 2001)
